Test [1] addresses T1, human CD38 (Homo sapiens, UniProt P28907).
T1 sequence (P28907 1-300): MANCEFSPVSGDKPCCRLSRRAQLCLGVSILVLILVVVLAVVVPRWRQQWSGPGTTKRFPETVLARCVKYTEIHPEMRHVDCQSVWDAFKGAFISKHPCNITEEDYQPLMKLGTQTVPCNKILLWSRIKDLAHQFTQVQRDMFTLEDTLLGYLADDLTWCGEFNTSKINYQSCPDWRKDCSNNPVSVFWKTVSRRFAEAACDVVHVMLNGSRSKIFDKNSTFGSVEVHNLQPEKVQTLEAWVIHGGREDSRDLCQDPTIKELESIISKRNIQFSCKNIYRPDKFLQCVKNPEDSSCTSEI
As to the kind of experiment: human recombinant CD38 enzyme assay (hydrolysis of NAD+). The following applies: human recombinant CD38, 0.4 nM enzyme, 62.5 μM NAD+; read-out: hCD38 BioChem IC50. In kind it is biochemical. In short, it runs like this: (§1)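 Residual substrate after a one-hour room-temperature incubation of recombinant CD38 with NAD+ and test compound is measured by an ADH/diaphorase coupled resorufin signal (540 nm excitation, 590 nm emission); reduced NAD+ consumption reflects inhibition.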

The target of test [2] is T2, mouse CD38 (Mus musculus, UniProt P56528).
T2 sequence (P56528 1-304): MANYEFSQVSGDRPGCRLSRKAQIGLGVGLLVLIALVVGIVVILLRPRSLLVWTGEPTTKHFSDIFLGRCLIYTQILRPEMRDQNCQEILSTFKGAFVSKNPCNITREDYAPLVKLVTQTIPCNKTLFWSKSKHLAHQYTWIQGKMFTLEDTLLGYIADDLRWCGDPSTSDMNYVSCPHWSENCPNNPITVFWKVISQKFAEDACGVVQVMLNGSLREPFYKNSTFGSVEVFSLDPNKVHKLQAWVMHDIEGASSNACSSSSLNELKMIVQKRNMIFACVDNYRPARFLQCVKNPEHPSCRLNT
As to the kind of experiment: mouse recombinant CD38 enzyme assay (hydrolysis of NAD+). The format is biochemical. The conditions noted are these: read-out: mCD38 BioChem IC50. A digest of the protocol:
as §1

Test [3] has as its target T3, endogenous CD38 in HL60 cells (Homo sapiens, UniProt P28907).
T3 construct: endogenous in cells; host or cells: HL60 (leukemic cells, treated with all-trans retinoic acid)
T3 sequence (P28907 1-300): T1 sequence (P28907 1-300)
As to the kind of experiment: cellular CD38 assay in HL60 cells (cellular NAD levels). The following applies: all-trans retinoic acid, 24 hours, read-out: hCD38 HL60 ATRA NAD Cell Diaphorase IC50. In kind it is cell-based. In short, it runs like this:
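Endogenous CD38 inhibition is inferred from NAD levels in HL60 cells after 24 h compound exposure at 20000 cells per well. A lytic cycling readout (0.2 U/mL diaphorase, 0.8 U/mL alcohol dehydrogenase, resazurin, FMN, ethanol, 0.2% Triton X-100, Tris/EDTA pH 8.4) ran 60 min at ambient temperature. Resorufin fluorescence was read at 540/590 nm.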

In the case of `O=C(N[C@H]1CC[C@H](C(F)F)CC1)c1ccnc(-n2ccnc2)n1` [Compound 68, N-((1r,4r)-4-(difluoromethyl)cyclohexyl)-2-(1H-imidazol-1-yl)pyrimidine-4-carboxamide], the IC50 – broadly, the point on the concentration scale where inhibition reaches its midpoint – was determined as 16 nM in test [1], 6 nM in test [2] and 1320 nM in test [3].

As for `O=C(Nc1cccnc1)c1nccc(-n2ccnc2)n1` [Compound 36, 4-(1H-imidazol-1-yl)-N-(pyridin-3-yl)pyrimidine-2-carboxamide], the values for the IC50 in test [1], in test [2] and in test [3] were 5 nM, 14 nM and 187 nM, respectively.

With `CC(C)c1cc(C(=O)Nc2ccc(C(F)F)nc2)nc(-c2cncn2C)n1` [Compound 173, N-(6-(difluoromethyl)pyridin-3-yl)-6-isopropyl-2-(1-methyl-1H-imidazol-5-yl)pyrimidine-4-carboxamide], the IC50 was determined as 8 nM in test [1], 2 nM in test [2] and 1250 nM in test [3].

For the compound `Cn1cncc1-c1nc(C(=O)N[C@H]2C[C@H](c3ccccc3)C2)cc(C2CCOCC2)n1` [Compound 230, 2-(1-methyl-1H-imidazol-5-yl)-N-((1r,3r)-3-phenylcyclobutyl)-6-(tetrahydro-2H-pyran-4-yl)pyrimidine-4-carboxamide], the IC50 in test [1] worked out at 4.3 nM; in test [2] it was 1.7 nM; in test [3], 1460 nM.

In the case of `COCCO[C@H]1CC[C@H](NC(=O)c2nc(OC)cc(-c3cncn3C)n2)CC1` [Compound 231, 4-methoxy-N-((1r,4r)-4-(2-methoxyethoxy)cyclohexyl)-6-(1-methyl-1H-imidazol-5-yl)pyrimidine-2-carboxamide], the figures for the IC50 in test [1], in test [2] and in test [3] were 72.2 nM, 9 nM and 10200 nM, respectively.

With `O=C(N[C@H]1CC[C@H](C(F)F)CC1)c1nccc(-n2ccnc2)n1` [Compound 73, N-((1r,4r)-4-(difluoromethyl)cyclohexyl)-4-(1H-imidazol-1-yl)pyrimidine-2-carboxamide], the IC50 in test [1] was 60 nM; in test [2] it was 33 nM; in test [3], 1990 nM.

Turning to `O=C(Nc1ccc(C(F)F)nc1)c1cccc(-n2ccnc2)n1` [Compound 95, N-(6-(difluoromethyl)pyridin-3-yl)-6-(1H-imidazol-1-yl)picolinamide], the IC50 in test [1] came out at 4 nM; in test [2], 6 nM; in test [3] it was 280 nM.

`CO[C@H]1CC[C@H](NC(=O)c2ccnc(-c3cncn3C)n2)CC1` [Compound 84, N-((1r,4r)-4-methoxycyclohexyl)-2-(1-methyl-1H-imidazol-5-yl)pyrimidine-4-carboxamide]: the IC50 in test [1] was 12 nM; in test [2] it was 2 nM; in test [3] it was 1110 nM.

`Cn1cncc1-c1ccnc(C(=O)N[C@H]2C[C@H](c3ccccc3F)C2)n1` [Compound 240, N-((1r,3r)-3-(2-fluorophenyl)cyclobutyl)-4-(1-methyl-1H-imidazol-5-yl)pyrimidine-2-carboxamide]: the IC50 in test [1] stood at 27.9 nM; in test [2] it was 13.3 nM; in test [3], 2060 nM.

For `COc1cc(C(=O)Nc2ccc(C(F)F)nc2)nc(-c2cncn2C)n1` [Compound 129, N-(6-(difluoromethyl)pyridin-3-yl)-6-methoxy-2-(1-methyl-1H-imidazol-5-yl)pyrimidine-4-carboxamide], the IC50 was 2 nM in test [1], 1 nM in test [2] and 267 nM in test [3].

As for `Cn1cncc1-c1nccc(C(=O)N[C@H]2CC[C@H](C(F)F)CC2)n1` [Compound 70, N-((1r,4r)-4-(difluoromethyl)cyclohexyl)-2-(1-methyl-1H-imidazol-5-yl)pyrimidine-4-carboxamide], the IC50 stood at 5 nM in test [1], 1 nM in test [2] and 770 nM in test [3].

For `COc1cc(C(=O)Nc2ccc(C(F)F)nc2)nc(-c2cncs2)n1` [Compound 131, N-(6-(difluoromethyl)pyridin-3-yl)-6-methoxy-2-(thiazol-5-yl)pyrimidine-4-carboxamide], the IC50 in test [1] came to 66 nM; in test [2] it was 23 nM; in test [3] it was 2910 nM.

As for `Cc1cc(C(=O)N[C@H]2CC[C@H](C(F)F)CC2)nc(-c2cncn2C)n1` [Compound 122, N-((1r,4r)-4-(difluoromethyl)cyclohexyl)-6-methyl-2-(1-methyl-1H-imidazol-5-yl)pyrimidine-4-carboxamide], the figures for the IC50 in test [1], in test [2] and in test [3] were 10 nM, 1 nM and 1010 nM, respectively.

`COc1ncc(-c2cncn2C)nc1C(=O)N[C@H]1CC[C@H](OC)CC1` [Compound 303, 3-methoxy-N-((1r,4r)-4-methoxycyclohexyl)-6-(1-methyl-1H-imidazol-5-yl)pyrazine-2-carboxamide]: the IC50 in test [1] came to 296 nM; in test [2], 62.4 nM; in test [3], 10400 nM.

With `Cn1cncc1-c1nc(C(=O)Nc2ccc(C(F)(F)F)nc2)cc(C2CCOCC2)n1` [Compound 198, 2-(1-methyl-1H-imidazol-5-yl)-6-(tetrahydro-2H-pyran-4-yl)-N-(6-(trifluoromethyl)pyridin-3-yl)pyrimidine-4-carboxamide], the results for the IC50 in test [1], in test [2] and in test [3] were 3.8 nM, 1 nM and 1130 nM, respectively.

As for `Cc1cc(-n2ccnc2)nc(C(=O)Nc2ccc(C(F)F)nc2)n1` [Compound 215, N-(6-(difluoromethyl)pyridin-3-yl)-4-(1H-imidazol-1-yl)-6-methylpyrimidine-2-carboxamide], the IC50 in test [1] stood at 2 nM; in test [2] it was 1.6 nM; in test [3], 214 nM.

Consider `O=C(Nc1ccc(C(F)F)nc1)c1ccnc(-c2cncs2)n1` [Compound 114, N-(6-(difluoromethyl)pyridin-3-yl)-2-(thiazol-5-yl)pyrimidine-4-carboxamide], for which the IC50 in test [1] was found to be 173 nM; in test [2], 150 nM; in test [3], 4330 nM.

`Cc1cc(C(=O)N[C@H]2CC[C@H](C(F)F)CC2)nc(-n2ccnc2)c1` [Compound 97, N-(4-(difluoromethyl)cyclohexyl)-6-(1H-imidazol-1-yl)-4-methylpicolinamide]: the figures for the IC50 in test [1], in test [2] and in test [3] were 24 nM, 3 nM and 1530 nM, respectively.

With `COc1cc(-c2cncn2C)nc(C(=O)Nc2ccc(C(F)F)nc2)n1` [Compound 201, N-(6-(difluoromethyl)pyridin-3-yl)-4-methoxy-6-(1-methyl-1H-imidazol-5-yl)pyrimidine-2-carboxamide], the values for the IC50 in test [1], in test [2] and in test [3] were 2.6 nM, 1.3 nM and 317 nM, respectively.

Consider `O=C(N[C@H]1C[C@H](c2ccc(F)cc2)C1)c1nccc(-n2ccnc2)n1` [Compound 238, N-((1r,3r)-3-(4-fluorophenyl)cyclobutyl)-4-(1H-imidazol-1-yl)pyrimidine-2-carboxamide], for which the IC50 in test [1] was determined as 43.2 nM; in test [2], 40.9 nM; in test [3], 2380 nM.

On to `O=C(Nc1ccc(C(F)(F)F)nc1)c1ccnc(-n2ccnc2)n1` [Compound 67, 2-(1H-imidazol-1-yl)-N-(6-(trifluoromethyl)pyridin-3-yl)pyrimidine-4-carboxamide], for which the IC50 in test [1] amounted to 4 nM; in test [2], 9 nM; in test [3], 409 nM.

Turning to `Cc1cc(C(=O)Nc2cccnc2)nc(-c2cncs2)c1` [Compound 35, 4-methyl-N-(pyridin-3-yl)-6-(thiazol-5-yl)picolinamide], the IC50 in test [1] turned out to be 210 nM; in test [2], 68 nM; in test [3], 3570 nM.

As for `Cn1cncc1-c1ccnc(C(=O)Nc2ccc(OC3CC(F)(F)C3)nc2)n1` [Compound 319], the results for the IC50 in test [1], in test [2] and in test [3] were 3.6 nM, 6 nM and 964 nM, respectively.

Regarding `CC(C)c1cc(C(=O)Nc2ccc(C(F)(F)F)nc2)nc(-c2cncn2C)n1` [Compound 174, 6-isopropyl-2-(1-methyl-1H-imidazol-5-yl)-N-(6-(trifluoromethyl)pyridin-3-yl)pyrimidine-4-carboxamide], the IC50 was determined as 8 nM in test [1], 4 nM in test [2] and 1780 nM in test [3].

As for `Cn1cncc1-c1nccc(C(=O)N[C@H]2CC[C@H](C)CC2)n1` [Compound 85, 2-(1-methyl-1H-imidazol-5-yl)-N-((1r,4r)-4-methylcyclohexyl)pyrimidine-4-carboxamide], the IC50 was 7 nM in test [1], 2 nM in test [2] and 765 nM in test [3].

The values above are taken from US20230116972A1, “CD38 MODULATORS AND METHODS OF USE THEREOF” (Cytokinetics, Inc., priority 2021, published 2023).
